Measurements from patent publication US7258999B2, “PTH responsive gene” (Wyeth, priority 2002, dated 2007).

Key:
[1] = system: PAIGB expression in ROS 17/2.8 cells; assay: Real time PCR of PAIGB expression in ROS 17/2.8 cells; format: cell-based, rat; details: 10 nM
Source text: Applicants performed multiplex real time PCR (TaqMan) analysis on previously DNAsed samples using gene specific probe and primers and 18S ribosomal RNA probe and primer sets purchased from Applied Biosystem. (Foster City, Calif.) The samples were DNAsed according to the protocol provided by Ambion (DNA-free kit). TaqMan probe and primers for PAIGB was identify using Primer Express computer program. The sequence for rat PAIGB TaqMan probe was 6FAM-5′[…] (SEQ ID NO: 16) forward and reverse primers were 5′[…] 3′ (SEQ ID NO:17) and 5′ […] 3′ (SEQ ID NO:18) respectively. The final concentrations for probes were 500 nM and 40 nM for PAIGB and 18S ribosomal RNA or GAPDH respectively. The concentrations of the primers were 500 nM for PAIGB forward and reversed primers while 18S primers were 10 and 20 nM for forward and reversed primer respectively or 40 nM for GAPDH primers. Standards for rat samples were made from rat tibia or brain RNA in the range of 250 ng to 0.1 ng, while standards for mouse specific TaqMan were made from mouse brain RNA and human standards from human brain RNA (Clonetech, Palo Alto, Calif.) spanning the same range of concentration. Primers and probes for mouse PAIGB were: forward 5′ […] 3′ (SEQ ID NO:19), reverse, 5′ […] (SEQ ID NO:21). Primers and probes for human PAIGB were: forward 5′ […] 3′ (SEQ ID NO:22), reverse 5′ […] 3′(SEQ ID NO: 24). The Taq-man analysis was done using ABI 7700 Sequence Detector under following conditions: 30 min at 48° C., 10 min at 95° C. and 40 cycles of 15 sec at 95° C. and 60 sec at 60° C. Analysis of real-time PCR analysis was performed using (Sequence Detector, Macintosh) program.
Five cell types were primarily used in our experiments. Rat osteoblast cell line (ROS 17/2.8) that expresses moderate levels of PTH receptor 1 (Rodan et al, Rev. Eukaryotic Gene Expression 1:85-98, 1991) were used to perform in vitro experiments. ROS cells were maintained under standard cell culture conditions: 10% heat inactivated FBS in Dulbecco's Modified Eagle Medium with Nutrient Mixture F-12 (DMEM/F12) media, 1% Penicillin/Streptomycin and 1% Glutamax. Mouse cell line C3H10T½ (ATCC# CCL226) as a representative of mouse osteoprogenitor cell line were maintained in Eagles Minimal Essential Media (EMEM) with the addition of 10% heat inactivated FBS and 1% Penicillin/Streptomycin and 1% Glutamax. UMR106 rat osteoblastic cells (ATCC# CRL1661) were cultured in Dulbecco's Modified Eagle Medium (DMEM) supplemented with 10% heat inactivated FBS, 1% Penicillin/Streptomycin and 1% Glutamax. The U2OS human osteoblastic cells (ATCC# HTB96) were cultured in McCoy's 5A Medium Modified supplemented with 10% FBS, 1% Penicillin/Streptomycin and 1% Glutamax. The human HOB-03-CE6 cell line (Bodine, V. N. P., et. al., J. Cell. Biochem., 65: 368-387,1997) was maintained in phenol red free DMEM/F12 media supplemented with 10% heat inactivated FBS and 1% Penicillin/Streptomycin and 1% Glutamax.
ROS 17/2.8 rat osteoblast cell line that express PTH receptor (˜80000 receptors/cell) were treated with increased doses of PTH: 1 nM, 10 nM, 100 nM and 1000 nM. Real time PCR using rat specific Taq-man probes and primers were used to examine the changes in PAIGB expression with PTH treatment.
Time course of PTH induction of PAIGB expression was examined. ROS 17/2.8_cells were treated with 10 nM PTH and RNA was harvested at 1, 2, 4, 6, 8 and 24 hours post treatment.

[2] = system: PAIGB expression; assay: Real time PCR of PAIGB in brain, kidney and heart after intermittent PTH; format: in vivo, rat; details: intermittent injection
Source text: Applicants performed multiplex real time PCR (TaqMan) analysis on previously DNAsed samples using gene specific probe and primers and 18S ribosomal RNA probe and primer sets purchased from Applied Biosystem. (Foster City, Calif.) The samples were DNAsed according to the protocol provided by Ambion (DNA-free kit). TaqMan probe and primers for PAIGB was identify using Primer Express computer program. The sequence for rat PAIGB TaqMan probe was 6FAM-5′[…] (SEQ ID NO: 16) forward and reverse primers were 5′[…] 3′ (SEQ ID NO:17) and 5′ […] 3′ (SEQ ID NO:18) respectively. The final concentrations for probes were 500 nM and 40 nM for PAIGB and 18S ribosomal RNA or GAPDH respectively. The concentrations of the primers were 500 nM for PAIGB forward and reversed primers while 18S primers were 10 and 20 nM for forward and reversed primer respectively or 40 nM for GAPDH primers. Standards for rat samples were made from rat tibia or brain RNA in the range of 250 ng to 0.1 ng, while standards for mouse specific TaqMan were made from mouse brain RNA and human standards from human brain RNA (Clonetech, Palo Alto, Calif.) spanning the same range of concentration. Primers and probes for mouse PAIGB were: forward 5′ […] 3′ (SEQ ID NO:19), reverse, 5′ […] 3′ (SEQ ID NO:20) anti-sense and probe 5′ 6FAM-[…] (SEQ ID NO:21). Primers and probes for human PAIGB were: forward 5′ […] 3′ (SEQ ID NO:22), reverse 5′ […] […]

human PTH (1-34)
PAIGB message with increasing concentrations ([1]; 1 nM, 100 nM and 1000 nM): dose-dependent increase
maximal increase of PAIGB expression ([1]; 4 hours time point): 2.66+/−0.3
effect on PAIGB expression 8 hours post treatment ([1]; 8 hours): completely abolished
induction of PAIGB expression ([1]; data not shown): 6 fold
changes in PAIGB expression in brain, kidney and heart [2]: did not produce any changes
